Results: patent US9663508B2, “Biaryl acyl-sulfonamide compounds as sodium channel inhibitors” (AMGEN INC., priority 2013, dated 2017)
Read-outs that look alike come from different tables or passages of the source.

Legend:
human Nav 1.5 = human Nav 1.5 (Homo sapiens (Human), UniProt Q14524); assay: Nav 1.5 IonWorks Quattro (IWQ) in vitro assay; type: cell-based
human Nav1.7 = human Nav1.7 (Homo sapiens (Human), UniProt Q15858); assay: Nav 1.7 in vitro PatchXpress (PX) assay; type: cell-based
[1] = in-vitro Nav 1.5 IWQ data, read-out: NAV 1.5 IWQ (IC50)

Chain of human Nav1.7 (Q15858 whole entry): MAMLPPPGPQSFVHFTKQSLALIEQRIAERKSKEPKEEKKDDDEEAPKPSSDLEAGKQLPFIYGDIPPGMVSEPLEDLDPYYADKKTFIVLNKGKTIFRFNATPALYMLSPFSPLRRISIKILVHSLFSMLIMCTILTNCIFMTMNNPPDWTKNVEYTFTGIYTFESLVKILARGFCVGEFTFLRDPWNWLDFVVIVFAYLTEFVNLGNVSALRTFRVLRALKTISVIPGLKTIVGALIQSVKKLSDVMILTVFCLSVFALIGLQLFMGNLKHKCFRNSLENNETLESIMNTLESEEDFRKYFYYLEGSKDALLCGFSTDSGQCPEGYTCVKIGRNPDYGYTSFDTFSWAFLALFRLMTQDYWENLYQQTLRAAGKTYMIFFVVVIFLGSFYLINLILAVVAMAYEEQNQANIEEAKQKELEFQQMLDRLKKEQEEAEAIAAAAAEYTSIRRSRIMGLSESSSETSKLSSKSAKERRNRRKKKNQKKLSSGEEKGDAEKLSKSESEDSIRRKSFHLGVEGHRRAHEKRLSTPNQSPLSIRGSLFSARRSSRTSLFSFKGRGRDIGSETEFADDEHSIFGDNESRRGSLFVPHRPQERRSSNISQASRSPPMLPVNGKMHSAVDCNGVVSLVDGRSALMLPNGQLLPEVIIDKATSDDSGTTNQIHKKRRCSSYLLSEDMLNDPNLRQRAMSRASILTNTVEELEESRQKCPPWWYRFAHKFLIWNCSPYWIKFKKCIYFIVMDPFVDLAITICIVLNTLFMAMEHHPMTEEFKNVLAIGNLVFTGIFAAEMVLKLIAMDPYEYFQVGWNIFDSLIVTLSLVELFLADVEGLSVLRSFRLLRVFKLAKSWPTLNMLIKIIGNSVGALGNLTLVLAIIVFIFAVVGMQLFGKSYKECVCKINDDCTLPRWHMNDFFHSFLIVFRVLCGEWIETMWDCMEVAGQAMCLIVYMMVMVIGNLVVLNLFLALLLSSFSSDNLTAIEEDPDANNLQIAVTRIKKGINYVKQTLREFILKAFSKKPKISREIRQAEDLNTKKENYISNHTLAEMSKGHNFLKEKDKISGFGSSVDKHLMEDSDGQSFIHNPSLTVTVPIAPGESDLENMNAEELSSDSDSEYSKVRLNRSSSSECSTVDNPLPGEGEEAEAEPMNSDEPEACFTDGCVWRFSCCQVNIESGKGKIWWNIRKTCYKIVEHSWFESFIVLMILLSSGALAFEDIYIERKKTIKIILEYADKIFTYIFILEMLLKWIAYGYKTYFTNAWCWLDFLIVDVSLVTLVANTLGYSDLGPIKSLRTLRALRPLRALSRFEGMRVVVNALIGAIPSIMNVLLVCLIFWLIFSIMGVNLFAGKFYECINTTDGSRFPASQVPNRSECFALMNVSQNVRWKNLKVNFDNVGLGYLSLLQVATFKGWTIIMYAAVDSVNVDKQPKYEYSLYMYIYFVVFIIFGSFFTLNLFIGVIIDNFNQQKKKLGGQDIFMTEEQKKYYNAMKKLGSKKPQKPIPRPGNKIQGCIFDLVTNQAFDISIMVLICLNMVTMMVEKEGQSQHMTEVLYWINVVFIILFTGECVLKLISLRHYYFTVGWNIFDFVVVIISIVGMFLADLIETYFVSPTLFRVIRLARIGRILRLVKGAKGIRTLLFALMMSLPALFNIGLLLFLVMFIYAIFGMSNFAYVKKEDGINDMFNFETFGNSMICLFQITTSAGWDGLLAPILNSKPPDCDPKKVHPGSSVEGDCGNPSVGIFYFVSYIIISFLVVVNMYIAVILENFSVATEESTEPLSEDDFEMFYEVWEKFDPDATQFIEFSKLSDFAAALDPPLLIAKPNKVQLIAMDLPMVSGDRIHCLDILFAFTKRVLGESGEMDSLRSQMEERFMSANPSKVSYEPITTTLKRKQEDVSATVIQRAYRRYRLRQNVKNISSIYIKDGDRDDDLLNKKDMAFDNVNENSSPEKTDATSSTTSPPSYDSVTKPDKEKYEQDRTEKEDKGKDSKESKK
Chain of human Nav 1.5 (Q14524 whole entry): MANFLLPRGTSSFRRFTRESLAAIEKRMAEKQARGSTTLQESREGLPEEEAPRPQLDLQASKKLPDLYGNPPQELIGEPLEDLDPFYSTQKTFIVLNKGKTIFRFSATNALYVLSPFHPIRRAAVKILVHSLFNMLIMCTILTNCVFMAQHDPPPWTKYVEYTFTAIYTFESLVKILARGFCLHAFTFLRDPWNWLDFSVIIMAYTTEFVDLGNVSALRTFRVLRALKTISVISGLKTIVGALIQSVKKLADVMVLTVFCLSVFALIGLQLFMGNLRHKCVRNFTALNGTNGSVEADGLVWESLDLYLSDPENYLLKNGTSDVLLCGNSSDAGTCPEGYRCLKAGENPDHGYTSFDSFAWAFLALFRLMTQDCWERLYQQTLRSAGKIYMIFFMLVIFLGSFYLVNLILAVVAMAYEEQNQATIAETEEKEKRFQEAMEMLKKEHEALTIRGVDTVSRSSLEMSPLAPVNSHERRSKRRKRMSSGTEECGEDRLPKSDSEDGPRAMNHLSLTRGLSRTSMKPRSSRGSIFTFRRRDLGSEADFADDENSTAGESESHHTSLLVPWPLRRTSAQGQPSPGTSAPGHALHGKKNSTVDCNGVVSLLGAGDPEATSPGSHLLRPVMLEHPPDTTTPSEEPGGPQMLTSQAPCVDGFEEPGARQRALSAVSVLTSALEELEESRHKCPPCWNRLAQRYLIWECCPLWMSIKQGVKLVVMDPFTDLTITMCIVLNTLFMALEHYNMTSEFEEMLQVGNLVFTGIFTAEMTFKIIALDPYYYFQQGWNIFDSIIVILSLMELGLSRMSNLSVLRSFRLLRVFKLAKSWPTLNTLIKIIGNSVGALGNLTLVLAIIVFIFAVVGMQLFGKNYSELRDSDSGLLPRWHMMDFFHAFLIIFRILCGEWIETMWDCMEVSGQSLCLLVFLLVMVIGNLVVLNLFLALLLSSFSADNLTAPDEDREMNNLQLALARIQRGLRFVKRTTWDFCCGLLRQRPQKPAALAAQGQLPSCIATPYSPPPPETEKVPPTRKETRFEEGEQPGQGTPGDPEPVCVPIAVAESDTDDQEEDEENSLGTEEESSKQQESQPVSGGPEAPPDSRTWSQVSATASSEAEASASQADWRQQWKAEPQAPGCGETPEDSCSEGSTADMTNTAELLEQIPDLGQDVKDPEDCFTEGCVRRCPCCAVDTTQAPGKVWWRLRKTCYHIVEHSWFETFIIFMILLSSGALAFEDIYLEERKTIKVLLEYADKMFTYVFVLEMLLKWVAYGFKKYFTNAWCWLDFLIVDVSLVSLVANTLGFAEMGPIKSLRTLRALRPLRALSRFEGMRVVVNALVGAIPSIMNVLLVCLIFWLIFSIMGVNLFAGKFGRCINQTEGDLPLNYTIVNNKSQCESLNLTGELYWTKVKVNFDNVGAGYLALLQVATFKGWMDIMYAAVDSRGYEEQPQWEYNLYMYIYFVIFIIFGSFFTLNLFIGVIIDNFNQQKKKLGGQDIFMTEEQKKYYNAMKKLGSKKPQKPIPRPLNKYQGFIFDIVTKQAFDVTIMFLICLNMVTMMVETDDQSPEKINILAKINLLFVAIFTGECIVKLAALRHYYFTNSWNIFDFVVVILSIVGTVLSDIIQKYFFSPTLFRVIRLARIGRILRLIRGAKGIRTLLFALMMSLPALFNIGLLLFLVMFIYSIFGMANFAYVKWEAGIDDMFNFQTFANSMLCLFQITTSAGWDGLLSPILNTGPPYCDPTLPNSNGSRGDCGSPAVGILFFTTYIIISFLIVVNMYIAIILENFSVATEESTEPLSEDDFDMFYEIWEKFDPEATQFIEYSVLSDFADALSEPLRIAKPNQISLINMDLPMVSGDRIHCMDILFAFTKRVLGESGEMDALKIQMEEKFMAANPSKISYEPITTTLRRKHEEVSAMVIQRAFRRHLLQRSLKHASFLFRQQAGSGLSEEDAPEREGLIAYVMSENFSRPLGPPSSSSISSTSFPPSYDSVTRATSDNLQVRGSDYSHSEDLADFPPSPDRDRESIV

| IC50 (human Nav1.7) | IC50 (human Nav1.7; in-vitro Nav 1.7 PX data) | Compound | IC50 (human Nav 1.5; read-out: NAV 1.5 IWQ IC50) | IC50 (human Nav 1.5; [1]) |
| --- | --- | --- | --- | --- |
| 55.7 nM |  | Cc1cc(C(=O)NS(C)(=O)=O)c(F)cc1-c1cnc(OCc2nc3ccccc3s2)c(Cl)c1 [Example 636, 4-(6-(1,3-benzothiazol-2-ylmethoxy)-5-chloro-3-pyridinyl)-2-fluoro-5-methyl-N-(methylsulfonyl)benzamide] | > 3000 nM |  |
| 82.8 nM |  | Cc1cc(C(=O)NS(C)(=O)=O)c(F)cc1-c1cnc(Oc2c(Cl)cc(F)cc2Cl)c(Cl)c1 [Example 644, 4-(5-chloro-6-(2,6-dichloro-4-fluorophenoxy)-3-pyridinyl)-2-fluoro-5-methyl-N-(methylsulfonyl)benzamide] | > 3000 nM |  |
| 55.1 nM |  | COc1cc(C(=O)NS(C)(=O)=O)c(F)cc1-c1cnc(Oc2cc(Cl)ccc2C)c(Cl)c1 [Example 699, 4-(5-chloro-6-(5-chloro-2-methylphenoxy)-3-pyridinyl)-2-fluoro-5-methoxy-N-(methylsulfonyl)benzamide] | > 3000 nM |  |
| 91.3 nM |  | COc1cc(C(=O)NS(C)(=O)=O)c(F)cc1-c1cnc(Oc2cc(F)cc(F)c2F)c(Cl)c1 [Example 700, 4-(5-chloro-6-(2,3,5-trifluorophenoxy)-3-pyridinyl)-2-fluoro-5-methoxy-N-(methylsulfonyl)benzamide] | > 3000 nM |  |
|  | 80.1 nM | COc1cc(C(=O)NS(C)(=O)=O)ccc1-c1cnc(COc2ccc(Cl)c(Cl)c2)c(Cl)c1 [Example 774, 4-(5-Chloro-6-((3,4-Dichlorophenoxy)-Methyl)Pyridin-3-yl)-3-Methoxy-N-(Methylsulfonyl)Benzamide] |  | > 3000 nM |
|  | 80.7 nM | CNS(=O)(=O)NC(=O)c1ccc(-c2cnc(Oc3cc(Cl)cc(Cl)c3)c(Cl)c2)c(OC)c1 [Example 772, 4-(5-Chloro-6-(3,5-Dichlorophenoxy)Pyridin-3-yl)-3-Methoxy-N—(N-Methylsulfamoyl)Benzamide] |  | > 3000 nM |
| 98.6 nM |  | Cc1cc(Cl)ccc1COc1ncc(-c2cc(F)c(C(=O)NS(C)(=O)=O)cc2C)cc1Cl [Example 681, 4-(5-chloro-6-((4-chloro-2-methylbenzyl)oxy)-3-pyridinyl)-2-fluoro-5-methyl-N-(methylsulfonyl)benzamide] | > 4900 nM |  |
| 54 nM |  | CC[C@@H](Oc1ncc(-c2cc(F)c(C(=O)NS(C)(=O)=O)cc2C)cc1Cl)c1ccc(F)c(C)c1 [Example 675, 4-(5-chloro-6-(((1R)-1-(4-fluoro-3-methylphenyl)propyl)oxy)-3-pyridinyl)-2-fluoro-5-methyl-N-(methylsulfonyl)benzamide] | > 10000 nM |  |
| 52.4 nM |  | COc1cc(C(=O)NS(C)(=O)=O)c(F)cc1-c1cnc(Oc2cc(Cl)cc(Cl)c2)c(Cl)c1 [Example 695, 4-(5-chloro-6-(3,5-dichlorophenoxy)-3-pyridinyl)-2-fluoro-5-methoxy-N-(methylsulfonyl)benzamide] | > 3000 nM |  |
|  | 24.8 nM | CCS(=O)(=O)NC(=O)c1ccc(-c2cnc(Oc3c(C)cc(Cl)cc3Cl)c(Cl)c2)c(OC)c1 [Example 788, 4-(5-chloro-6-(2,4-dichloro-6-methylphenoxy)-3-pyridinyl)-N-(ethylsulfonyl)-3-methoxybenzamide] |  | 1380 nM |
| 67.5 nM |  | Cc1cc(C(=O)NS(C)(=O)=O)c(F)cc1-c1cnc(Oc2ccc(F)c3c2CCC3)c(Cl)c1 [Example 672, 4-(5-chloro-6-((7-fluoro-2,3-dihydro-1H-inden-4-yl)oxy)-3-pyridinyl)-2-fluoro-5-methyl-N-(methylsulfonyl)benzamide] | > 10000 nM |  |

Second part, the molecule before the results:

| Compound | IC50 (human Nav1.7) | IC50 (human Nav1.7; in-vitro Nav 1.7 PX data) | IC50 (human Nav 1.5; read-out: NAV 1.5 IWQ IC50) | IC50 (human Nav 1.5; [1]) |
| --- | --- | --- | --- | --- |
| Cc1cc(C(=O)NS(C)(=O)=O)c(F)cc1-c1cnc(Oc2cc(Cl)ccc2F)c(Cl)c1 [Example 617, 4-(5-chloro-6-(5-chloro-2-fluorophenoxy)-3-pyridinyl)-2-fluoro-5-methyl-N-(methylsulfonyl)benzamide] | 93.3 nM |  | > 3000 nM |  |
| Cc1ccc([C@H]2CCCN2c2ncc(-c3cc(F)c(C(=O)NS(C)(=O)=O)cc3C)cc2Cl)cc1 [Example 657, 4-(5-chloro-6-((2R)-2-(4-methylphenyl)-1-pyrrolidinyl)-3-pyridinyl)-2-fluoro-5-methyl-N-(methylsulfonyl)benzamide, 4-(5-chloro-6-((2S)-2-(4-methylphenyl)-1-pyrrolidinyl)-3-pyridinyl)-2-fluoro-5-methyl-N-(methylsulfonyl)benzamide] | 92.9 nM |  | > 3000 nM |  |
| Cc1cc(C(=O)NS(C)(=O)=O)c(F)cc1-c1cnc(O[C@H](C)c2nc3cc(Cl)ccc3s2)c(Cl)c1 [Example 653, 4-(5-chloro-6-((1R)-1-(5-chloro-1,3-benzothiazol-2-yl)ethoxy)-3-pyridinyl)-2-fluoro-5-methyl-N-(methylsulfonyl)benzamide, 4-(5-chloro-6-((1S)-1-(5-chloro-1,3-benzothiazol-2-yl)ethoxy)-3-pyridinyl)-2-fluoro-5-methyl-N-(methylsulfonyl)benzamide] | 83.6 nM |  | > 3000 nM |  |
| Cc1cc(Cl)ccc1Oc1ncc(-c2cc(F)c(C(=O)NS(C)(=O)=O)cc2C)cc1Cl [Example 620, 4-(5-chloro-6-(4-chloro-2-methylphenoxy)-3-pyridinyl)-2-fluoro-5-methyl-N-(methylsulfonyl)benzamide] | 76.1 nM |  | > 3000 nM |  |
| Cc1cc(C(=O)NS(C)(=O)=O)c(F)cc1-c1cnc(O[C@H](C)c2cc(F)c(F)cc2F)c(Cl)c1 [Example 660, 4-(5-chloro-6-((1R)-1-(2,4,5-trifluorophenyl)ethoxy)-3-pyridinyl)-2-fluoro-5-methyl-N-(methylsulfonyl)benzamide, 4-(5-chloro-6-((1S)-1-(2,4,5-trifluorophenyl)ethoxy)-3-pyridinyl)-2-fluoro-5-methyl-N-(methylsulfonyl)benzamide] | 92.5 nM |  | 6440 nM |  |
| Cc1ccc(Oc2ncc(-c3cc(F)c(C(=O)NS(C)(=O)=O)cc3Cl)cc2Cl)cc1F [Example 591, 5-chloro-4-(5-chloro-6-(3-fluoro-4-methylphenoxy)-3-pyridinyl)-2-fluoro-N-(methylsulfonyl)benzamide] | 85.6 nM |  | > 3000 nM |  |
| C[C@@](Oc1ncc(-c2cc(F)c(C(=O)NS(C)(=O)=O)cc2F)cc1Cl)(c1ccccc1)C(F)(F)F [Example 566, 4-(5-chloro-6-((1R)-2,2,2-trifluoro-1-methyl-1-phenylethoxy)-3-pyridinyl)-2,5-difluoro-N-(methylsulfonyl)benzamide, 4-(5-chloro-6-((1S)-2,2,2-trifluoro-1-methyl-1-phenylethoxy)-3-pyridinyl)-2,5-difluoro-N-(methylsulfonyl)benzamide] | 73.1 nM |  | > 3000 nM |  |
| Cc1cc(C(=O)NS(C)(=O)=O)c(F)cc1-c1cnc(O[C@H](C)CCc2ccccc2)c(Cl)c1 [Example 638, 4-(5-chloro-6-(((1R)-1-methyl-3-phenylpropyl)oxy)-3-pyridinyl)-2-fluoro-5-methyl-N-(methylsulfonyl)benzamide, 4-(5-chloro-6-(((1S)-1-methyl-3-phenylpropyl)oxy)-3-pyridinyl)-2-fluoro-5-methyl-N-(methylsulfonyl)benzamide] | 80 nM |  | > 3000 nM |  |
| Cc1cc(C(=O)NS(C)(=O)=O)c(F)cc1-c1cnc(O[C@H](C)c2c(F)cc(F)cc2F)c(Cl)c1 [Example 661, 4-(5-chloro-6-((1R)-1-(2,4,6-trifluorophenyl)ethoxy)-3-pyridinyl)-2-fluoro-5-methyl-N-(methylsulfonyl)benzamide, 4-(5-chloro-6-((1S)-1-(2,4,6-trifluorophenyl)ethoxy)-3-pyridinyl)-2-fluoro-5-methyl-N-(methylsulfonyl)benzamide] | 76.9 nM |  | > 10000 nM |  |
| Cc1cc(Cl)cc(Cl)c1Oc1ncc(-c2ccc(C(=O)NS(C)(=O)=O)cc2OC(F)F)cc1Cl [Example 585, 4-(5-chloro-6-(2,4-dichloro-6-methylphenoxy)-3-pyridinyl)-3-(difluoromethoxy)-N-(methylsulfonyl)benzamide] | 47.2 nM |  | 289 nM |  |
| Cc1cc(C(=O)NS(C)(=O)=O)c(F)cc1-c1cnc(O[C@](C)(c2ccccc2)C(F)(F)F)c(Cl)c1 [Example 587, 4-(5-chloro-6-((1R)-2,2,2-trifluoro-1-methyl-1-phenylethoxy)-3-pyridinyl)-2-fluoro-5-methyl-N-(methylsulfonyl)benzamide, 4-(5-chloro-6-((1S)-2,2,2-trifluoro-1-methyl-1-phenylethoxy)-3-pyridinyl)-2-fluoro-5-methyl-N-(methylsulfonyl)benzamide] | 81.5 nM |  | > 3000 nM |  |
| Cc1cc(C(=O)NS(C)(=O)=O)c(F)cc1-c1cnc(O[C@H](C)C2CCC2)c(Cl)c1 [Example 641, 4-(5-chloro-6-((1R)-1-cyclobutylethoxy)-3-pyridinyl)-2-fluoro-5-methyl-N-(methylsulfonyl)benzamide, 4-(5-chloro-6-((1S)-1-cyclobutylethoxy)-3-pyridinyl)-2-fluoro-5-methyl-N-(methylsulfonyl)benzamide] | 111 nM |  | 9320 nM |  |
| Cc1cc(C(=O)NS(C)(=O)=O)c(F)cc1-c1cnc(Oc2ccc(Cl)c3ccccc23)c(Cl)c1 [Example 613, 4-(5-chloro-6-((4-chloro-1-naphthalenyl)oxy)-3-pyridinyl)-2-fluoro-5-methyl-N-(methylsulfonyl)benzamide] | 92.7 nM |  | > 3000 nM |  |
| CS(=O)(=O)NC(=O)c1cc(Cl)c(-c2cnc(Oc3cc(F)ccc3Cl)c(Cl)c2)cc1F [Example 595, 5-chloro-4-(5-chloro-6-(2-chloro-5-fluorophenoxy)-3-pyridinyl)-2-fluoro-N-(methylsulfonyl)benzamide] | 81.4 nM |  | > 3000 nM |  |
| Cc1cc(C(=O)NS(C)(=O)=O)c(F)cc1-c1cnc(Oc2cc(F)cc(F)c2F)c(Cl)c1 [Example 629, 4-(5-chloro-6-(2,3,5-trifluorophenoxy)-3-pyridinyl)-2-fluoro-5-methyl-N-(methylsulfonyl)benzamide] | 57.8 nM |  | > 3000 nM |  |
